{"source": "patent US10005767B2", "about": "“Compositions and methods for inhibition of the JAK pathway” (Rigel Pharmaceuticals, Inc., priority 2009, dated 2018)", "note": "Counter-ions that a name gives are not always drawn.", "data": [{"system": "human primary T-cells, IL-2 stimulated proliferation (JAK-1 and JAK-3 dependent; reported as JAK3 activity)", "experiment": "Human primary T-cell proliferation stimulated by IL-2 (Example 3)", "format": "cell-based", "conditions": "Homo sapiens, T-cell, tested under conditions described in Example 3 (IL-2 stimulated human primary T-cell proliferation); read-out: ability to inhibit JAK3 activity, IC50 range (Table V)", "outline": "(§1)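 Peripheral-blood human T-cells pre-activated via TCR/CD28, IL-2-starved overnight, then cultured 72 h at 37 °C with compound in Yssel's medium containing IL-2 (80 U/mL in cell suspension). Proliferation read as viable-cell ATP by CellTiter-Glo luminescence; reduction versus control taken as JAK pathway inhibition.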", "units": {"IC50": "nM"}, "values": [{"smiles": "Cc1cnc(Nc2ccc(C(C)C)cc2)nc1Nc1ccc2oc(=O)[nH]c2c1", "note": "[Compound I-419, 5-(2-(4-isopropylphenylamino)-5-methylpyrimidin-4-ylamino)benzo[d]oxazol-2(3H)-one]", "IC50": "< 500"}, {"smiles": "Cc1cnc(Nc2ccc(C(C)(C)C)cc2)nc1Nc1ccc2oc(=O)[nH]c2c1", "note": "[Compound I-420, 5-(2-(4-tert-butylphenylamino)-5-methylpyrimidin-4-ylamino)benzo[d]oxazol-2(3H)-one]", "IC50": "< 500"}, {"smiles": "Cc1ccc(Nc2ncc(C)c(Nc3ccc4oc(=O)[nH]c4c3)n2)cc1", "note": "[Compound I-421, 5-(2-(p-toluidino)-5-methylpyrimidin-4-ylamino)benzo[d]oxazol-2(3H)-one]", "IC50": "< 500"}, {"smiles": "COc1ccc(Nc2ncc(C)c(Nc3ccc4oc(=O)[nH]c4c3)n2)cc1COC(C)C", "note": "[Compound I-422, 5-(2-(3-(isopropoxymethyl)-4-methoxyphenylamino)-5-methylpyrimidin-4-ylamino)benzo[d]oxazol-2(3H)-one]", "IC50": "< 500"}, {"smiles": "COc1cc(Nc2ncc(C)c(Nc3ccc4oc(=O)[nH]c4c3)n2)cc(C(C)O)c1", "note": "(centres unmarked) [Compound I-423, 5-(2-(3-(1-hydroxyethyl)-5-methoxyphenylamino)-5-methylpyrimidin-4-ylamino)benzo[d]oxazol-2(3H)-one]", "IC50": "< 500"}, {"smiles": "Cc1cnc(Nc2ccc(O)c(Cl)c2)nc1Nc1ccc2oc(=O)[nH]c2c1", "note": "[Compound I-424, 5-[2-(3-Chloro-4-hydroxy-phenylamino)-5-methyl-pyrimidin-4-ylamino]-3H-benzooxazol-2-one]", "IC50": "< 500"}, {"smiles": "Cc1cnc(Nc2ccc(O)cc2)nc1Nc1ccc2oc(=O)[nH]c2c1", "note": "[Compound I-425, 5-[2-(4-Hydroxy-phenylamino)-5-methyl-pyrimidin-4-ylamino]-3H-benzooxazol-2-one]", "IC50": "< 500"}, {"smiles": "Cc1cnc(Nc2ccc(OCCN(C)C)cc2)nc1Nc1ccc2oc(=O)[nH]c2c1", "note": "[Compound I-426, 5-{2-[4-(2-Dimethylamino-ethoxy)-phenylamino]-5-methyl-pyrimidin-4-ylamino}-3H-benzooxazol-2-one]", "IC50": "< 500"}, {"smiles": "COc1cc(Nc2ncc(C)c(Nc3cc(C)c4oc(=O)[nH]c4c3)n2)cc(C(F)(F)F)c1", "note": "[Compound I-427, 5-(2-(3-methoxy-5-(trifluoromethyl)phenylamino)-5-methylpyrimidin-4-ylamino)-7-methylbenzo[d]oxazol-2(3H)-one]", "IC50": "> 10000"}, {"smiles": "COc1cc(C)cc(Nc2ncc(C)c(Nc3cc(C)c4oc(=O)[nH]c4c3)n2)c1", "note": "[Compound I-428, 5-(2-(3-methoxy-5-methylphenylamino)-5-methylpyrimidin-4-ylamino)-7-methylbenzo[d]oxazol-2(3H)-one]", "IC50": "< 500"}, {"smiles": "COc1ccc(Nc2ncc(C)c(Nc3cc(C)c4oc(=O)[nH]c4c3)n2)cc1C", "note": "[Compound I-429, 5-(2-(4-methoxy-3-methylphenylamino)-5-methylpyrimidin-4-ylamino)-7-methylbenzo[d]oxazol-2(3H)-one]", "IC50": "< 500"}, {"smiles": "COc1cc(C)cc(Nc2ncc(C)c(Nc3cc(F)c4oc(=O)[nH]c4c3)n2)c1", "note": "[Compound I-430, 7-fluoro-5-(2-(3-methoxy-5-methylphenylamino)-5-methylpyrimidin-4-ylamino)benzo[d]oxazol-2(3H)-one]", "IC50": "< 500"}, {"smiles": "COc1ccc(Nc2ncc(C)c(Nc3cc(F)c4oc(=O)[nH]c4c3)n2)cc1C", "note": "[Compound I-431, 7-fluoro-5-(2-(4-methoxy-3-methylphenylamino)-5-methylpyrimidin-4-ylamino)benzo[d]oxazol-2(3H)-one]", "IC50": "< 500"}, {"smiles": "COc1cc(Nc2ncc(C)c(Nc3ccc4oc(=O)[nH]c4c3)n2)cc(C)c1F", "note": "[Compound I-432, 5-(2-(4-fluoro-3-methoxy-5-methylphenylamino)-5-methylpyrimidin-4-ylamino)benzo[d]oxazol-2(3H)-one]", "IC50": "< 500"}, {"smiles": "Cc1cnc(Nc2ccc(OC(F)F)c(CF)c2)nc1Nc1ccc2oc(=O)[nH]c2c1", "note": "[Compound I-433, 5-(2-(4-(difluoromethoxy)-3-(fluoromethyl)phenylamino)-5-methylpyrimidin-4-ylamino)benzo[d]oxazol-2(3H)-one formate salt]", "IC50": "< 500"}, {"smiles": "Cc1ccc(Nc2ncc(C)c(Nc3ccc4oc(=O)[nH]c4c3)n2)cc1C(F)F", "note": "[Compound I-438, 5-(2-(3-(difluoromethyl)-4-methylphenylamino)-5-methylpyrimidin-4-ylamino)benzo[d]oxazol-2(3H)-one]", "IC50": "< 500"}, {"smiles": "Cc1ccc(Nc2ncc(C)c(Nc3ccc4oc(=O)[nH]c4c3)n2)cc1CF", "note": "[Compound I-439, 5-(2-(3-(fluoromethyl)-4-methylphenylamino)-5-methylpyrimidin-4-ylamino)benzo[d]oxazol-2(3H)-one]", "IC50": "< 500"}, {"smiles": "Cc1cnc(Nc2ccc(OC(F)F)c(C(F)F)c2)nc1Nc1ccc2oc(=O)[nH]c2c1", "note": "[Compound I-442, 5-(2-(4-(difluoromethoxy)-3-(difluoromethyl)phenylamino)-5-methylpyrimidin-4-ylamino)benzo[d]oxazol-2(3H)-one formate salt]", "IC50": "< 500"}, {"smiles": "Cc1ccc(Nc2ncc(C)c(Nc3ccc4oc(=O)[nH]c4c3)n2)cc1-c1ccncc1", "note": "[Compound I-443, 5-(5-methyl-2-(4-methyl-3-(pyridin-4-yl)phenylamino)pyrimidin-4-ylamino)benzo[d]oxazol-2(3H)-one]", "IC50": "< 500"}, {"smiles": "Cc1ccc(Nc2ncc(C)c(Nc3ccc4oc(=O)[nH]c4c3)n2)cc1-c1cccnc1", "note": "[Compound I-444, 5-(5-methyl-2-(4-methyl-3-(pyridin-3-yl)phenylamino)pyrimidin-4-ylamino)benzo[d]oxazol-2(3H)-one]", "IC50": "< 500"}, {"smiles": "CC(=O)c1cc(Nc2ncc(C)c(Nc3ccc4oc(=O)[nH]c4c3)n2)cc(C(F)(F)F)c1", "note": "[Compound I-445, 5-(2-(3-acetyl-5-(trifluoromethyl)phenylamino)-5-methylpyrimidin-4-ylamino)benzo[d]oxazol-2(3H)-one]", "IC50": "< 500"}, {"smiles": "Cc1cnc(Nc2cc(C(C)O)cc(C(F)(F)F)c2)nc1Nc1ccc2oc(=O)[nH]c2c1", "note": "(centres unmarked) [Compound I-446, 5-(2-(3-(1-hydroxyethyl)-5-(trifluoromethyl)phenylamino)-5-methylpyrimidin-4-ylamino)benzo[d]oxazol-2(3H)-one]", "IC50": "< 500"}, {"smiles": "CCN(CC)CCOc1ccc(Nc2ncc(C)c(Nc3ccc4oc(=O)[nH]c4c3)n2)cc1", "note": "[Compound I-449, 5-{2-[4-(2-Diethylamino-ethoxy)-phenylamino]-5-methyl-pyrimidin-4-ylamino}-3H-benzooxazol-2-one]", "IC50": "< 500"}]}, {"system": "human primary T-cells, IL-2 stimulated proliferation (JAK-1 and JAK-3 dependent; reported as JAK3 activity)", "experiment": "Human primary T-cell proliferation stimulated by IL-2 (Example 3)", "format": "cell-based", "conditions": "tested under conditions described in Example 3 (IL-2 stimulated human primary T-cell proliferation); read-out: ability to inhibit JAK3 activity, IC50 range (Table V)", "outline": "as §1", "units": {"IC50": "nM"}, "values": [{"smiles": "Cc1cnc(Nc2ccc(Cl)c(OC(F)F)c2)nc1Nc1ccc2oc(=O)[nH]c2c1", "note": "[Compound I-418, N2-(4-chloro-3-difluoromethoxy)phenyl-5-methyl-N4-(2-oxo-2,3-dihydro-1,3-benzoxazol-5-yl)-2,4-pyrimidinediamine]", "IC50": "< 500"}, {"smiles": "Cc1cnc(Nc2ccc(C#N)c(OC(F)F)c2)nc1Nc1ccc2oc(=O)[nH]c2c1", "note": "[Compound I-434, N2-(4-cyano-3-difluoromethoxy)phenyl-5-methyl-N4-(2-oxo-2,3-dihydro-1,3-benzoxazol-5-yl)-2,4-pyrimidinediamine]", "IC50": "< 500"}, {"smiles": "Cc1cnc(Nc2ccc(F)c(OC(F)F)c2)nc1Nc1ccc2oc(=O)[nH]c2c1", "note": "[Compound I-435, N2-(3-difluoromethoxy-4-fluoro)phenyl-5-methyl-N4-(2-oxo-2,3-dihydro-1,3-benzoxazol-5-yl)-2,4-pyrimidinediamine]", "IC50": "< 500"}]}]}
